In assay [1] the target is T1, SIRT2 (Homo sapiens, UniProt Q8IXJ6).
T1 sequence (Q8IXJ6 1-389): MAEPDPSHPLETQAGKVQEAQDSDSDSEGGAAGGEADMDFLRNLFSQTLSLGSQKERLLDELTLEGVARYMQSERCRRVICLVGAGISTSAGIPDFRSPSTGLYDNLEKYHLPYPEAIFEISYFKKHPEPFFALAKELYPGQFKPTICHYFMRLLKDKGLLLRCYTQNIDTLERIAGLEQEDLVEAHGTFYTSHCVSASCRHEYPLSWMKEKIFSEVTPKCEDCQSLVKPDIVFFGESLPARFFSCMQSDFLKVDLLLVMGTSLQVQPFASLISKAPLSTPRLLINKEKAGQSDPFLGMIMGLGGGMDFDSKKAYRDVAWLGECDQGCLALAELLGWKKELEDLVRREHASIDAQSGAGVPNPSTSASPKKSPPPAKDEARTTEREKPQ
The experiment in a line: Fluor de Lys SIRT2 assay. The following applies: for inhibition at 10 µM: read-out: % inhibition at 10 μM SIRT2; for inhibition at 1 µM: read-out: % inhibition at 1 μM SIRT2.

Assay [2] addresses T2, SIRT5 (Homo sapiens, UniProt Q9NXA8).
T2 sequence (Q9NXA8 37-310): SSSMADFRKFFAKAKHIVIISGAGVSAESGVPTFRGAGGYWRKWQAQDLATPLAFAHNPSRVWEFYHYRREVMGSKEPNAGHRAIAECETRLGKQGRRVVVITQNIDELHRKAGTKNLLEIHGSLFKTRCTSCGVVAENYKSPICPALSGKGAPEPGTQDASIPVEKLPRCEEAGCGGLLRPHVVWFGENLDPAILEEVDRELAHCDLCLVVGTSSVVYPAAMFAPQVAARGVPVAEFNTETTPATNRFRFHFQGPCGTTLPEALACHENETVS
The experiment in a line: Fluor de Lys SIRT5 assay. The conditions noted are these: for inhibition at 10 µM: read-out: % inhibition at 10 μM SIRT5; for inhibition at 50 µM: read-out: % inhibition at 50 μM SIRT5.

In assay [3] the target is T3, SIRT1 (Homo sapiens, UniProt Q96EB6).
T3 sequence (Q96EB6 1-747): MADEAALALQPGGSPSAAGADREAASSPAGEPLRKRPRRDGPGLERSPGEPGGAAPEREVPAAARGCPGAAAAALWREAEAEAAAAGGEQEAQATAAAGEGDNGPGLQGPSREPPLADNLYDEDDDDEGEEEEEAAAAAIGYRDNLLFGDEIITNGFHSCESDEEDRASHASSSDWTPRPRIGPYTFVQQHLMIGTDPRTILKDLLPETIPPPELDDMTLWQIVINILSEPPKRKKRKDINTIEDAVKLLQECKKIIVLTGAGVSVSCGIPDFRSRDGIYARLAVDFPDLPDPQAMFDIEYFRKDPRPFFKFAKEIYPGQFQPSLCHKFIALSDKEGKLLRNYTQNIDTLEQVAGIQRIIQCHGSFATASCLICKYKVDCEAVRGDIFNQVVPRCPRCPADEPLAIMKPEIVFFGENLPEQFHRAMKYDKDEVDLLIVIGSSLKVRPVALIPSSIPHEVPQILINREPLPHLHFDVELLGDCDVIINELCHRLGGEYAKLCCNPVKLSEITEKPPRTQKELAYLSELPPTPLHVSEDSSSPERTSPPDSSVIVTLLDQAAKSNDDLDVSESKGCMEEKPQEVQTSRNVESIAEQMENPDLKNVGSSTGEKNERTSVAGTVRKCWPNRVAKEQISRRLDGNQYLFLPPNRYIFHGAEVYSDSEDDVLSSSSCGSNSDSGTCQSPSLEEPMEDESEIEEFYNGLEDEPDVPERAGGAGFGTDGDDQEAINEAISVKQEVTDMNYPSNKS
The experiment in a line: Fluor de Lys SIRT1 assay. The following applies: for inhibition at 10 µM: read-out: % inhibition at 10 μM SIRT1; for inhibition at 50 µM: read-out: % inhibition at 50 μM SIRT1.

The target of assay [4] is T4, SIRT3 (Homo sapiens, UniProt Q9NTG7).
T4 sequence (Q9NTG7 1-399): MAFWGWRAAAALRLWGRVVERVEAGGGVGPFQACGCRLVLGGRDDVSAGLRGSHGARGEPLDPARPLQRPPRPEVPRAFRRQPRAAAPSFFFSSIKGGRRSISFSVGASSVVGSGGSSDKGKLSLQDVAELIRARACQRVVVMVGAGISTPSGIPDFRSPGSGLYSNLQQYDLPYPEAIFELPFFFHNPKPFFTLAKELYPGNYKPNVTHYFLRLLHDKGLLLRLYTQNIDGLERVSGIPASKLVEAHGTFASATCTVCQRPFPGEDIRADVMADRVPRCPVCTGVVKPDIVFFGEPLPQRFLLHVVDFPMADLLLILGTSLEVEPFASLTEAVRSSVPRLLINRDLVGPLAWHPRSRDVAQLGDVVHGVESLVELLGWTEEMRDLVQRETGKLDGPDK
As to the kind of experiment: Fluor de Lys SIRT3 assay. The conditions noted are these: for inhibition at 10 µM: read-out: % inhibition at 10 μM SIRT3; for inhibition at 50 µM: read-out: % inhibition at 50 μM SIRT3.

The test system of assay [5] is MDA-MB-231 cells. The experiment in a line: Cell growth assay (AlamarBlue), MDA-MB-231. The assay is classed as cell-based, human. The conditions noted are these: Homo sapiens, MDA-MB-231, 72 h, 72 h of treatment. (In general: The colour change of resazurin is a common sign of viable cells or microbes.)

The structures appear in SMILES notation. Where a SMILES comes first, the peptide text is derived from it. Side-chain parts run from the residue outwards. The star is where a group is joined. Cbz = O=C(OCc1ccccc1)*; Bz = O=C(c1ccccc1)* Some results are limits rather than exact numbers.

The IC50 is the midpoint of a concentration-inhibition curve. For orientation: inhibition means the change of the read-out against control, counted positive when it falls. As to `CCCCCNC(=S)CNC(=O)c1ccccc1Nc1cccc(OCCc2ccccc2)c1` [Compound 42], 19.3 ± 3.1 µM corresponded to half-maximal inhibition in assay [1] (IC50). In addition, the inhibition at 10 µM was found to be 40 ± 3.4% in assay [1], 0% in assay [2], 0% in assay [3] and 0% in assay [4]. Besides, the results for the inhibition at 50 µM in assay [2], in assay [3] and in assay [4] were 3%, 11% and 2%, respectively.
On to `CCCCCNC(=O)CNC(=O)c1ccccc1Nc1cccc(OCCc2ccccc2)c1` [Compound 19], for which the IC50 in assay [1] worked out at 6.71 ± 0.42 µM. In addition, the inhibition at 10 µM was 69 ± 2.2% in assay [1], 6 ± 3.2% in assay [2], 4.5 ± 3.4% in assay [3] and 3 ± 3.2% in assay [4]. For the same compound, the figures for the inhibition at 50 µM in assay [2], in assay [3] and in assay [4] were 6%, 4% and 2%, respectively.
Compound `CCCNC(=S)CNC(=O)c1ccccc1Nc1cccc(OCCc2ccccc2)c1` [Compound 41] registered an IC50 in assay [1] of 8.47 ± 0.3 µM. Further, the inhibition at 10 µM in assay [1] was found to be 54 ± 1.5%; in assay [2] it was 1 ± 2.2%; in assay [3], 0%; in assay [4], 0%. Moreover, the inhibition at 50 µM in assay [2] stood at 3%; in assay [3], 10%; in assay [4], 0%.
On to `O=C(Nc1cccc([N+](=O)[O-])c1)c1cccc(S(=O)(=O)N2CCCCCC2)c1` [Compound 8, AK-1, reference compound], for which the inhibition at 10 µM came out at 31 ± 0.42% in assay [1], 0% in assay [2], 6.2 ± 0.85% in assay [3] and 0% in assay [4]. For the same compound, the inhibition at 50 µM in assay [2] amounted to 0%; in assay [3] it was 25%; in assay [4], 0%.
The compound `C[C@H](NC(=O)[C@H](CCCCNC(=O)CNC(=O)c1ccccc1Nc1ccccc1)NC(=O)OCc1ccccc1)C(N)=O` [Compound 27] displayed a half-maximal inhibitory concentration (IC50) in assay [1] of 1.84 ± 0.21 µM. For the same compound, the inhibition at 10 µM in assay [1] turned out to be 80 ± 0.12%; in assay [2], 0%; in assay [3] it was 24 ± 2.1%; in assay [4], 9 ± 2.2%. In addition, in assay [1] (removal of the phenoxyethyl fragment, relative to 26), the “reduction of the SIRT2 inhibitory activity” value is reported as around 20%. The values for the inhibition at 50 µM in assay [2], in assay [3] and in assay [4] were 3%, 68% and 16%, respectively.
One may read the GI50 as the concentration at which growth is held to half of that of the control. A high value points to lower sensitivity of the cells. In turn, `C[C@H](NC(=O)[C@H](CCCCNC(=O)CNC(=O)c1ccccc1Nc1cccc(OCCc2ccccc2)c1)NC(=O)OCc1ccccc1)C(N)=O` [Compound 26] displayed an IC50 in assay [1] of 0.37 ± 0.03 µM. For the same compound, the inhibition at 1 µM in assay [1] amounted to 74 ± 2%. The inhibition at 10 µM in assay [1] stood at 99 ± 0.15%; in assay [2] it was 0%; in assay [3], 16 ± 0.1%; in assay [4] it was 14 ± 4.9%. This compound yielded a GI50 in assay [5] of 10.8 µM. The inhibition at 50 µM in assay [2] worked out at 6%; in assay [3], 25%; in assay [4], 56%.
For `NC(=O)C1CCCc2c1[nH]c1ccc(Cl)cc21` (centres unmarked) [Compound 9, EX-527, reference compound], the inhibition at 10 µM stood at 79 ± 1.3% in assay [1], 0% in assay [2] and 97 ± 0.13% in assay [3]. The same compound came in with a GI50 in assay [5] above 30 µM. Also, the inhibition at 50 µM in assay [2] was 0%.
As to `CC(=S)NCCCC[C@H](NC(=O)OCc1ccccc1)C(=O)N[C@@H](C)C(N)=O` [UKU 10363, reference compound], the half-inhibitory concentration (IC50) is 0.59 ± 0.13 µM in assay [1], 0.18 ± 0.013 µM in assay [3] and 4.39 ± 0.28 µM in assay [4]. The figures for the inhibition at 1 µM in assay [1], in assay [3] (read-out: % inhibition at 1 μM SIRT1) and in assay [4] (read-out: % inhibition at 1 μM SIRT3) were 56 ± 1.9%, 83 ± 0.4% and 19 ± 0.78%, respectively. The inhibition at 10 µM in assay [1] amounted to 99 ± 3.2%; in assay [2], 3 ± 3.9%; in assay [3] it was 97 ± 0.04%; in assay [4], 65 ± 0.23%. The inhibition at 50 µM in assay [2] worked out at 6%.
Take `C[C@H](NC(=O)[C@H](CCCCNC(=O)CNC(=O)c1ccccc1)NC(=O)OCc1ccccc1)C(N)=O` [Compound 28] (Cbz-Lys([Gly-Bz])-Ala-NH2): the “SIRT2 inhibition (in words)” value in assay [1] is “no SIRT2 inhibition”. Besides, the inhibition at 10 µM in assay [1] worked out at 8 ± 3.3%; in assay [2] it was 0%; in assay [3], 3.5 ± 1%; in assay [4], 1 ± 1.8%. Besides, the inhibition at 50 µM turned out to be 18% in assay [1] (read-out: % inhibition at 50 μM SIRT2), 0% in assay [2], 1% in assay [3] and 0% in assay [4].
Turning to `CCCNC(=O)CNC(=O)c1ccccc1Nc1cccc(OCCc2ccccc2)c1` [Compound 18], in assay [1], the IC50 worked out at 4.04 ± 0.65 µM. Further, the inhibition at 10 µM was found to be 81 ± 0.43% in assay [1], 0% in assay [2], 2 ± 1% in assay [3] and 0% in assay [4]. Also, the results for the inhibition at 50 µM in assay [2], in assay [3] and in assay [4] were 3%, 12% and 3%, respectively.
Regarding `NC(=O)CNC(=O)c1ccccc1Nc1cccc(OCCc2ccccc2)c1` [Compound 17], in assay [1], the IC50 came out at 3.6 ± 0.03 µM. Also, the inhibition at 1 µM in assay [1] turned out to be 19 ± 0.63%. Moreover, the inhibition at 10 µM in assay [1] was 85 ± 0.47%; in assay [2], 0%; in assay [3], 10 ± 1.9%; in assay [4] it was 10 ± 0.95%. Moreover, the values for the inhibition at 50 µM in assay [2], in assay [3] and in assay [4] were 4%, 18% and 13%, respectively.
With `CN(C)CCCCC(=O)Nc1ccc(NC(=S)NC(=O)c2ccc(C(C)(C)C)cc2)cc1` [Compound 3, tenovin-6, reference compound], the inhibition at 10 µM in assay [1] turned out to be 45 ± 2.5%; in assay [2] it was 0%; in assay [3] it was 0.9 ± 0.17%; in assay [4], 0%. Besides, the inhibition at 50 µM in assay [2] came out at 2%; in assay [3], 64%; in assay [4] it was 9%.
On to `N#C/C(=C\c1ccc(-c2cc(Cl)ccc2Cl)o1)C(=O)Nc1cccc2ncccc12` [Compound 7, AGK2, reference compound], for which the inhibition at 10 µM in assay [1] amounted to 45 ± 2.9%; in assay [2], 0%; in assay [3] it was 0.9 ± 0.62%. The inhibition at 50 µM turned out to be 3% in assay [2] and 14% in assay [3].

Source of the values: publication PMC5628579, “Potent mechanism-based sirtuin-2-selective inhibition by an in situ-generated occupant of the substrate-binding site, “selectivity pocket” and NAD^+-binding site” (Chemical Science, 2017).
